Assay results reported in patent US7993928B2, “Detection of blood plasma Danshensu and Salvianolic acid B dissipating blood stasis botanical” (Shanghai Sundise, priority 2007, dated 2011).

Details: mammal plasma collected 0.5 hours after being drenched with strengthening body resistance and dissipating blood stasis botanical (FZHY); solid-phase extraction, UPLC/MS negative ion mode
Protocol: Method of pretreating mammalian blood plasma sample: Collect mammal plasma containing drugs 0.5 hours after being administered the strengthening body resistance and dissipating blood stasis botanical, misce bene after adding 2-5 mol/L phosphoric acid, and the volume ratio between the blood plasma and phosphoric acid is 1:2-3, applying the blood plasma with drugs to small column of WATERS OASIS HLB (a type of chromatographic column) activated by methanol and water; after leaching with water and 80-100% methanol and eluting with 0.2-1% ammonia-methanol, drying and enriching the eluent under the condition of 25-30° C., and redissolving the eluent with mobile phase.
UPLC/MS detection method: The analysis conditions of the applied UPLC/MS method in this invention, UPLC condition: chromatographic column: ACQUITY HPLC BEH C18 (a type of chromatographic column), 2.1×100 mm, mobile phase A: Water-Acetonitrile-Formic acid 95:5:0.1 v/v/v, mobile phase B: Acetonitrile-Formic acid 100:0.1 v/v, eluting in accordance with the following gradient: […]

SMILES | Detection in the blood plasma
O=C(/C=C/c1ccc(O)c2c1[C@H](C(=O)O[C@H](Cc1ccc(O)c(O)c1)C(=O)O)[C@@H](c1ccc(O)c(O)c1)O2)O[C@H](Cc1ccc(O)c(O)c1)C(=O)O [Salvianolic acid B] | can be detected
O=C(O)[C@H](O)Cc1ccc(O)c(O)c1 [Danshensu] | can be detected
